Literature values as cited in PMC9358669, “Native metabolomics identifies the rivulariapeptolide family of protease inhibitors” (Nature Communications, 2022).

Tested on: Chymotrypsin
Parameters: method as in earlier work
Conditions: Supplementary Table 5, Top 50 chymotrypsin inhibitors among Ahp-cyclodepsipeptides; cited from earlier work

In the case of CCCCCC(=O)N[C@@H](CCC(=O)O)C(=O)N[C@@H]1C(=O)N[C@@H](Cc2ccc(O)cc2)C(=O)N[C@H]2CC[C@@H](O)N(C2=O)[C@@H](CC(C)C)C(=O)N(C)[C@@H](Cc2ccc(O)cc2)C(=O)N[C@@H](C(C)C)C(=O)O[C@@H]1C [Micropeptin E], the IC50 is listed as 1000 nM.

In the case of CCCCCC(=O)N[C@@H](CC(=O)O)C(=O)N[C@@H]1C(=O)N[C@@H](Cc2ccc(O)cc2)C(=O)N[C@H]2CC[C@@H](O)N(C2=O)[C@@H](CC(C)C)C(=O)N(C)[C@@H](Cc2ccccc2)C(=O)N[C@@H](C(C)C)C(=O)O[C@@H]1C [Cyanopeptolin 963A], the IC50 is listed as 900 nM.

In the case of CC(C)C[C@@H]1NC(=O)[C@@H](NC(=O)[C@H](CCC(N)=O)NC(=O)C(C)C)[C@@H](C)OC(=O)[C@H](C(C)C)NC(=O)C(Cc2ccc(O)cc2)N(C)C(=O)[C@H](Cc2ccccc2)N2C(=O)[C@H](CC[C@H]2O)NC1=O (stereo partly drawn) [Crocapeptin A2], the IC50 is listed as 100 nM.

For Loggerpeptin A, the IC50 is given as 240 nM.

In the case of Cyanopeptolin CP1018, the IC50 is given as 240 nM.

For Micropeptin KB1048, the IC50 is listed as 630 nM.

In the case of Cyanopeptolin CP978, the IC50 is listed as 260 nM.

For Dinghupepeptin B, the IC50 is given as 1100 nM.

In the case of CCCCCC(=O)NCC(=O)N[C@H](C(=O)N[C@@H]1C(=O)N[C@@H](CCC(N)=O)C(=O)N[C@H]2CC[C@@H](O)N(C2=O)[C@@H](Cc2ccccc2)C(=O)N(C)[C@@H](Cc2ccc(O)cc2)C(=O)N[C@@H](C(C)C)C(=O)O[C@@H]1C)[C@@H](C)O [Micropeptin LH1021], the IC50 is listed as 1100 nM.
